Several values for one entry are separate records, joined by “and”; a condition that tells them apart may be missing. Equal entries are not always repeated.
Test system: C57, LDLr+/− and LDLr0 mice
Assay: Serum cholesterol in mice on Western Diet given daily oral T2
Assay type: in vivo
Parameters: Cholesterol / Cholesterol (Ave): unit not given here
Conditions: for lowered cholesterol, average: vs vehicle; for Cholesterol (Ave): group average; for Cholesterol: individual animal
Experimental: This corresponds to a dosage for an 80 kg human of about 20-200 mg/day, or a low dose of about 0.2-0.3 mg/kg of body weight to a high dose of about 2-3 mg/kg of body weight. One will appreciate, however, that some subjects (e.g., subjects having very low LDL receptor function) may receive higher doses, depending on need. likewise, some subjects may receive lower doses, which again depends on need. Mice in the study were fed a standard lab chow referred to as the “Western Diet.” The overall level of fat and the saturated nature of the fat are representative diets typical in the industrialized west that are linked to risk of cardiovascular disease in humans. The formula is used primarily with genetically manipulated rodent models that are susceptible to high cholesterol and cardiovascular disease. The diet may also be useful in diet-induced obesity, diabetes, and metabolic syndrome models. High cholesterol, obesity, and diabetes are each associated increased risk for cardiovascular disease. The composition of the Western Diet is shown below. C57 is a wild-type strain, LDLr+/− are a strain carrying one functional copy of the LDLr gene, and the LDLr0 animals are total LDLr knockouts. The LDLr gene encodes for the LDL receptor protein, which is responsible for scavenging LDL with bound cholesterol from the blood and transporting it into cells. Both heterozygous and homozygous LDLr knockout animals develop very high serum cholesterol levels and are considered to be a good model for heterozygous and homozygous familial hypercholesterolemia in humans. […] LDLr knockout animals have zero LDL receptor function.

`N[C@@H](Cc1cc(I)c(Oc2ccc(O)cc2)c(I)c1)C(=O)O` [T2, (2S)-2-amino-3-[4-(4-hydroxyphenoxy)-3,5-diiodophenyl]propanoic acid] was tested, and the “lowered cholesterol, average” value (C57 animals, high dose T2 2.5 mg/kg daily oral) was “about 67%”, the “lowered cholesterol, average” value (C57 animals, low dose T2 0.25 mg/kg daily oral) was “about 38%” and the “Cholesterol (Ave)” value (C57 mice, 1 Week High Dose, T2 2.5 mg/kg daily oral) was 60.8. For the same molecule, the Cholesterol (C57 mice, 1 Week High Dose, T2 2.5 mg/kg daily oral, 2.5 mg/kg) was 41.312 and 53.718 and 75.711 and 62.741 and 70.636, the “Cholesterol (Ave)” value (C57 mice, 1 Week Low Dose, T2 0.25 mg/kg daily oral) was 113.5 and the Cholesterol (C57 mice, 1 Week Low Dose, T2 0.25 mg/kg daily oral, 0.25 mg/kg) was 96.130 and 114.249 and 104.366 and 114.798 and 137.858. For the same molecule, the “Cholesterol (Ave)” value (LDLr0 mice (first group), 1 Week High Dose, T2 2.5 mg/kg daily oral) was 320.4, the Cholesterol (LDLr0 mice (first group), 1 Week High Dose, T2 2.5 mg/kg daily oral, 2.5 mg/kg) was 303.529 and 337.364 and the “Cholesterol (Ave)” value (LDLr0 mice (first group), 1 Week Low Dose, T2 0.25 mg/kg daily oral) was 823.5. For the same molecule, the Cholesterol (LDLr0 mice (first group), 1 Week Low Dose, T2 0.25 mg/kg daily oral, 0.25 mg/kg) was 1063.848 and 593.252 and 813.532, the “Cholesterol (Ave)” value (LDLr0 mice (second group), 1 Week Low Dose, T2 0.25 mg/kg daily oral) was 930.5 and the Cholesterol (LDLr0 mice (second group), 1 Week Low Dose, T2 0.25 mg/kg daily oral, 0.25 mg/kg) was 611.760 and 750.720 and 813.250 and 1112.010 and 1167.590 and 438.070 and 1000.840 and 1549.720. For the same molecule, the “Cholesterol (Ave)” value (LDLr0 mice (second group), 2 Week Low Dose, T2 0.25 mg/kg daily oral) was 1026.8, the Cholesterol (LDLr0 mice (second group), 2 Week Low Dose, T2 0.25 mg/kg daily oral, 0.25 mg/kg) was 996.905 and 1035.325 and 944.755 and 988.670 and 1092.965 and 524.830 and 1189.025 and 1441.530 and the “lowered cholesterol, average” value (LDLr knockout animals, high dose T2 2.5 mg/kg daily oral) was “about 80%”. For the same molecule, the “lowered cholesterol, average” value (LDLr knockout animals, low dose T2 0.25 mg/kg daily oral) was “about 46%”, the “lowered cholesterol, average” value (LDLr+/− animals, high dose T2 2.5 mg/kg daily oral) was “about 67%” and the “lowered cholesterol, average” value (LDLr+/− animals, low dose T2 0.25 mg/kg daily oral) was “about 26%”. The “Cholesterol (Ave)” value (LDLr+/− mice, 1 Week High Dose, T2 2.5 mg/kg daily oral) was 93.8, the Cholesterol (LDLr+/− mice, 1 Week High Dose, T2 2.5 mg/kg daily oral, 2.5 mg/kg) was 84.169 and 99.395 and 103.342 and 102.778 and 66.124 and 107.29 and the “Cholesterol (Ave)” value (LDLr+/− mice, 1 Week Low Dose, T2 0.25 mg/kg daily oral) was 188.8. The Cholesterol (LDLr+/− mice, 1 Week Low Dose, T2 0.25 mg/kg daily oral, 0.25 mg/kg) was 185.075 and 229.548 and 196.605 and 160.917 and 172.447 and 188.370.
